Measurements taken from patent publication US20110009493A1 (priority 2008, published 2011).
Read-outs that look alike come from different tables or passages of the source.

Experiments:
Mycobacterium bovis = format: cell-based
Pseudomonas aeruginosa = experiment: Bacterial testing, ISO-GRID membrane filter system; format: cell-based; settings: 400 ppm hard water; for Kill of Pseudomonas aeruginosa (in words): 1 minute, 5% soil; for Results (percent kill) / Results Log10 Reduction: 1 minute contact, 5% organic soil, bacteria 6.81 log10 (CFU/g)
Description: • Bacteria (gram negative): Pseudomonas aeruginosa • Pathogenesis: Opportunistic pathogen in humans, cause of 1 in 10 nosocomial infections^1, causes wound, blood, burn, urinary tract, lung and ear infections. ^1http://textbookofbacteriology.net/pseudomonas.html • Concentration of Bacteria: 6.81 log10 (CFU/g) • Solution Contact Time: 1 minute • Dilution media: hard water (400 ppm) • Bio burden: 5% organic soil
The tests were performed using the ISO-GRID™ membrane filter system (Neogen Corp., Lansing, Mich., USA) according to a slightly modified procedure described in the ISO-GRID™ Methods Manual (3rd Ed.; QA Life Sciences, Inc., San Diego, Calif., USA; 1999).

[1] = ten minutes contact, 5% fetal bovine serum, 5.8*10^5 CFU/carrier
[2] = ten minutes contact, 5% fetal bovine serum

O=Cc1ccccc1C=O [2., Orthophthalaldehyde]
Pass/Fail (Intermediate 30 day read) (Mycobacterium bovis; [1]): Fail
Results (Intermediate 30 day read) (Mycobacterium bovis; [1]): 1/10

O=Cc1ccccc1C=O [OPA, orthophthalaldehyde]
Kill of Pseudomonas aeruginosa (in words) (Pseudomonas aeruginosa): Neither OPA nor DDABC alone were sufficient to kill all
Kill of Mycobacterium bovis (in words) (Mycobacterium bovis; [2]): neither OPA, nor DDABC alone was sufficient to provide complete kill

O=Cc1ccccc1C=O [compound 4, Orthophthalaldehyde]
Results (percent kill) (Pseudomonas aeruginosa): 40.2%
Results Log10 Reduction (Pseudomonas aeruginosa): 2.74 Log10

Didecyldimethylammonium bicarbonate/carbonate [compound 3]
Results (percent kill) (Pseudomonas aeruginosa): 87.4%
Results Log10 Reduction (Pseudomonas aeruginosa): 5.95 Log10

didecyldimethylammomum bicarbonate/carbonate [1.]
Pass/Fail (Intermediate 30 day read) (Mycobacterium bovis): Fail
Results (Intermediate 30 day read) (Mycobacterium bovis): 1/10

didecyldimethylammonium bicarbonate/carbonate [DDABC]
Kill of Pseudomonas aeruginosa (in words) (Pseudomonas aeruginosa): Neither OPA nor DDABC alone were sufficient to kill all
Kill of Mycobacterium bovis (in words) (Mycobacterium bovis; [2]): neither OPA, nor DDABC alone was sufficient to provide complete kill
